pIC50: −log10 of the molar value.
Tested on: 188146-221-R-J1-PDC complex spheroid viability
Experiment: Anticancer human tumor 188146-221-R-J1-PDC patient-derived colon adenocarcinoma cell line growth inhibition [POLQ]
Conditions: for pIC50: curve of first compound; for viability, T/C: stronger effect = lower value
Method in brief: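 PDC + HUVEC + MSC complex spheroids; POLQ inhibitors ± partner drugs; top conc. at/near clinical Cmax, else 10 microM (SN-38 1 microM), half-log dilutions; 37 degrees C, 5% CO2.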
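Further: spheroids exposed to compounds for seven days.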
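Wherever viability, T/C is given: 100% = DMSO vehicle control viability.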

Compound: CC1COCCN1c1cc(C2(O)CC3CCC(C2)O3)c2cnn(-c3ccn[nH]3)c2n1 (configuration not stated) + Nc1ccc(C#CCN(C(=O)Cc2ncc(C(F)(F)F)cc2C(F)(F)F)c2ccc(F)cc2)nn1
- pIC50 (second compound 0.0316 µM): 6.48
- pIC50 (second compound 0.1 µM): 6.46
- pIC50 (second compound 0.316 µM): 6.60
- pIC50 (second compound 1 µM): 6.54
- pIC50 (second compound 3.16 µM): 6.54
- pIC50 (second compound 10 µM): 6.68
- viability, T/C (second compound 0.0316 µM, first compound 0.0316 µM): 88.7%
- viability, T/C (second compound 0.0316 µM, first compound 0.1 µM): 76.8%
- viability, T/C (second compound 0.0316 µM, first compound 0.316 µM): 49.4%
- viability, T/C (second compound 0.0316 µM, first compound 1 µM): 27%
- viability, T/C (second compound 0.0316 µM, first compound 3.16 µM): 18.9%
- viability, T/C (second compound 0.0316 µM, first compound 10 µM): 8.36%
- viability, T/C (second compound 0.1 µM, first compound 0.0316 µM): 109%
- viability, T/C (second compound 0.1 µM, first compound 0.1 µM): 77.2%
- viability, T/C (second compound 0.1 µM, first compound 0.316 µM): 54.2%
- viability, T/C (second compound 0.1 µM, first compound 1 µM): 29.2%
- viability, T/C (second compound 0.1 µM, first compound 3.16 µM): 18%
- viability, T/C (second compound 0.1 µM, first compound 10 µM): 8.08%
- viability, T/C (second compound 0.316 µM, first compound 0.0316 µM): 105%
- viability, T/C (second compound 0.316 µM, first compound 0.1 µM): 72.1%
- viability, T/C (second compound 0.316 µM, first compound 0.316 µM): 44.2%
- viability, T/C (second compound 0.316 µM, first compound 1 µM): 24.3%
- viability, T/C (second compound 0.316 µM, first compound 3.16 µM): 17%
- viability, T/C (second compound 0.316 µM, first compound 10 µM): 7.87%
- viability, T/C (second compound 1 µM, first compound 0.0316 µM): 95.8%
- viability, T/C (second compound 1 µM, first compound 0.1 µM): 70.5%
- viability, T/C (second compound 1 µM, first compound 0.316 µM): 52%
- viability, T/C (second compound 1 µM, first compound 1 µM): 24.3%
- viability, T/C (second compound 1 µM, first compound 3.16 µM): 15.6%
- viability, T/C (second compound 1 µM, first compound 10 µM): 8.87%
- viability, T/C (second compound 3.16 µM, first compound 0.0316 µM): 89.9%
- viability, T/C (second compound 3.16 µM, first compound 0.1 µM): 80.7%
- viability, T/C (second compound 3.16 µM, first compound 0.316 µM): 43.9%
- viability, T/C (second compound 3.16 µM, first compound 1 µM): 26%
- viability, T/C (second compound 3.16 µM, first compound 3.16 µM): 18.2%
- viability, T/C (second compound 3.16 µM, first compound 10 µM): 7.84%
- viability, T/C (second compound 10 µM, first compound 0.0316 µM): 87.7%
- viability, T/C (second compound 10 µM, first compound 0.1 µM): 66%
- viability, T/C (second compound 10 µM, first compound 0.316 µM): 41.4%
- viability, T/C (second compound 10 µM, first compound 1 µM): 21.1%
- viability, T/C (second compound 10 µM, first compound 3.16 µM): 18.1%
- viability, T/C (second compound 10 µM, first compound 10 µM): 7.06%

Source: PubChem BioAssay AID1963851 (Molecular Pharmacology Branch, DTP, NCI, 2024)
